Measurements published in patent publication US12251366B1, “Sulforaphane-cysteine for wound healing in diabetic subjects” (KUWAIT UNIVERSITY, priority 2024, dated 2025).
“Also recorded” adds a separate entry of the source.

Tests used:
[1] = system: wound fibroblasts (DF, CF-GP); test: Cell viability assay, H2O2 cytotoxicity in wound fibroblasts; type: cell-based, rat; conditions: 1.5 to 5 μM
Method: To determine if SFN-Cys is involved in cellular detoxification of oxidant load, wound fibroblasts derived from the granulation tissue of control and diabetic animals with H2O2 were measured for their abilities to survive acute oxidative stress in the presence or absence of SFN-Cys. […] Moreover, CF exposed for 72 hours to high glucose (25 mmole/L and palmitate 200 μmole/L, CF-GP) to mimic the diabetic state produced analogous results to those seen with DF as illustrated in FIG. 2A. Supplementing DF and CF-GP with SFN-Cys at a dose of 1.5 to 5 μM eliminated the reactive oxygen species difference between these cells and enhanced DF and CF-GP resistance to H2O2(FIG. 2A).
Control and diabetic fibroblasts were isolated from wounds inflicted on control Wistar rats (CF) or Goto kakazaki rats (GK), a model of non-obese type 2 diabetes. All information regarding the GK rats and the preparation and culturing of control (CF) and diabetic (DF) fibroblasts was described in detailed in previous publications, Bitar, M S, and Mulla, F. Am J Phyaiol. […]
The response of CF and DF to H2O2 cytotoxicity was measured by seeding the cells into 96-well plates at a density of 5×10^3 to 8×10^3 cells per well and were allowed to adhere overnight in 10% FCS-DMEM medium. […] Cell viability was measured using WST-1 (Dojindo, USA;) according to the manufacturer's instructions.

[2] = Blood tests on plasma after 21 days of SFN-Cys diet; type: in vivo; conditions: mice, diet 7.5 mg/kg food, mean±SEM
Method: To strengthen this conclusion, extensive measurements were conducted on plasma levels of key parameters of kidney and liver toxicities in addition to the lipid and carbohydrate profiles.
For dietary treatment with SFN-Cys, the SFN-Cys was mixed with a powdered diet (7.5 mg of SFN-Cys per kg of food). The estimated dose delivered by this diet was about 1.0-1.5 mg/kg. The diet was stored at 4° C. and the feeders were refilled daily. Control animals received diet alone. Body weights were recorded twice a week and at the termination of the study, blood was drawn in EDTA-containing tubes, plasma was collected by centrifugation and stored at −80° C. until analysis.
Blood tests were performed on hemolysis free plasma samples obtained from animals receiving 21 days of a normal diet or a diet containing 7.5 mg/kg food of SFN-Cys using commercially available kits.

TNF-α = test: Cytokine ELISA, LPS-stimulated peritoneal macrophages (TNF-α); type: cell-based, mouse
Excerpt: This was exemplified in the current study by the ability of SFN-CYS to inhibit lipopolysaccharide (LPS)-induced peritoneal macrophages and bone marrow-derived macrophages to produce tumor necrosis factor-α (TNF-α) and interlukin-6 (IL-6). TNF-α and IL-6 are two of the major inflammatory mediators that contribute to the pathogenesis of low-grade inflammation; a phenomenon which is commonly associated with the diabetic state. […] Pre-treatment with SFN-Cys inhibited the expression of LPS-induced TNF-α and IL-6 protein at a therapeutic dose of 1.5 μM (FIGS. 1A and 1B).
(§1) Thioglycollate-elicited mouse peritoneal macrophages were prepared from C57BL (8-10 weeks old) and cultured in RPMI 1640 with 10% (v/v) FCS Bone marrow-derived macrophages were generated in RPMI medium containing M-CSF (10 ng/mL) according to previously published procedure. For cytokine ELISA assay, cells were seeded at 5×10^5 in 12-well plates, whereas for mRNA expression, the cells were seeded at […]. LPS and used at a dose of 100 ng/mL. Similarly. SFN-Cys was used at a concentration of 1.5 umol/L.
For cytokine ELISA, supernatants from cultured macrophages were collected in response to treatment with SFN and SFN-Cys for 6 h. The total TNF-α and TL-6 were measured by enzyme-linked immunosorbent assay (ELISA) using kits (R&D system, USA) according to the manufacturer's protocols.

NQO1 = test: mRNA expression of Nrf2 target gene NQO1 in fibroblasts; type: cell-based, rat; conditions: diabetic fibroblasts, 1.5 μM
Method: To better characterize how SFN-Cys impacts cellular antioxidant levels, the ability of SFN-Cys to regulate the transcription factor nuclear factor erythroid 2-related factor 2 (Nrf2) was assessed, which is a master regulator of the antioxidative stress response that induces the expression of antioxidant proteins such as heme oxygenase (HO) and NAD(P)H dehydrogenase (quinine; NQO1) and key enzymes in the glutathione system. In this context, Nrf2 transcriptional activity was first measured using a vector encoding luciferase driven by the NQO1 promoter. […] Administration of SNF-Cyst at the above indicated concentration (1.5 μM, the lowest effective concentration) ameliorated diabetes-induced suppression of the Nrf2 activity and Nrf2-target genes including HO and NQO1 (FIG. 2A-D).
Total RNA from cells or frozen sponge implants was extracted using the Trizol reagent (Invitrogen), and the RNA integrity was verified by agarose gel electrophoresis. […] The amplified sequences were assessed using the ABI 7500 Prism Sequence Detection system machine. The results were expressed as mRNA levels normalized to 18S or GAPDH in each sample.

[3] = system: bone marrow-derived macrophages; test: LPS-induced cytokines in bone marrow-derived macrophages; type: cell-based, mouse
Method: as §1, with “Additional tests were conducted to determine whether SFN-Cys also suppresses TNF-α and IL-6 expression at the mRNA level. […] Thioglycollate-elicited” for “Thioglycollate-elicited”

Plasma Alanine aminotransferase [2]: 44.5 ± 17 IU/L
Plasma Alkaline phosphatase [2]: 27 ± 15 IU/L
Plasma Aspartate aminotransferase [2]: 172 ± 25 IU/L
Plasma Creatinine [2]: 8.87 ± 0.91 µmol/L
Plasma Free fatty acid [2]: 0.41 ± 0.14 mmol/L
Plasma Glucose [2]: 5.87 ± 0.90 mmol/L
Plasma Ketone bodies [2]: 0.079 ± 0.01 mmol/L
Plasma Total bilirubin [2]: 4.23 ± 0.48 µmol/L
Plasma Total cholesterol [2]: 2.15 ± 0.42 mmol/L
Plasma Triglyceride [2]: 1.15 ± 0.25 mmol/L
Structure (SMILES): C[S+]([O-])CCCCNC(=S)SCC(N)C(=O)O (stereo not shown) [SFN-Cys, Sulforaphane-Cysteine]
reactive oxygen species difference between DF/CF-GP and control fibroblasts [1]: eliminated
resistance to H2O2 (cell viability) ([1]; DF and CF-GP, H2O2 400 μmol/L 4 hours, WST-1): enhanced
anti-inflammatory activity (overall, SFN-Cys compared with SFN) (TNF-α; LPS-stimulated macrophages, mouse model of type 2 diabetes): exhibited anti-inflammatory and antioxidant activities; also recorded: more potent than SFN
expression of LPS-induced TNF-α protein (TNF-α; peritoneal macrophages, LPS 100 ng/mL 6 hours, pre-treatment 1.5 μM, ELISA): inhibited
mRNA expression of Nrf2 target gene NQO1 (NQO1): ameliorated
suppression of LPS-induced TNF-α and IL-6 in bone marrow-derived macrophages [3]: analogous results were also seen
